Results on 3 molecules are retold here after patent publication US8815908B2, “Compounds and methods for inhibiting phosphate transport” (Ardelyx, Inc., priority 2010, dated 2014).

Each structure is given as a SMILES string. Bounds are passed on as bounds.

A short description of data set [1]: Determination of compound Cmax and AUC after oral gavage. The format is in vivo, Sprague-Dawley rats. To be noted: Sprague-Dawley, rat plasma; for AUC: blood at 0.5-4 h. Here is the method: Blood samples were processed to plasma using K2EDTA as an anticoaglulant. Plasma samples were treated with acetonitrile containing an internal standard, precipitated proteins removed by centrifugation. Supernatants were analyzed by LC-MS/MS and compound concentrations were determined by interpolated from a standard curve prepared in plasma. All compounds were orally dosed at the dosage shown, and pharmacokinetic parameters determined.

For data set [2], the target named is T1, rat NaP2b (SLC34A2) (Rattus norvegicus, UniProt Q9JJ09).
T1 construct: host or cells: HEK293
T1 sequence (Q9JJ09 1-695): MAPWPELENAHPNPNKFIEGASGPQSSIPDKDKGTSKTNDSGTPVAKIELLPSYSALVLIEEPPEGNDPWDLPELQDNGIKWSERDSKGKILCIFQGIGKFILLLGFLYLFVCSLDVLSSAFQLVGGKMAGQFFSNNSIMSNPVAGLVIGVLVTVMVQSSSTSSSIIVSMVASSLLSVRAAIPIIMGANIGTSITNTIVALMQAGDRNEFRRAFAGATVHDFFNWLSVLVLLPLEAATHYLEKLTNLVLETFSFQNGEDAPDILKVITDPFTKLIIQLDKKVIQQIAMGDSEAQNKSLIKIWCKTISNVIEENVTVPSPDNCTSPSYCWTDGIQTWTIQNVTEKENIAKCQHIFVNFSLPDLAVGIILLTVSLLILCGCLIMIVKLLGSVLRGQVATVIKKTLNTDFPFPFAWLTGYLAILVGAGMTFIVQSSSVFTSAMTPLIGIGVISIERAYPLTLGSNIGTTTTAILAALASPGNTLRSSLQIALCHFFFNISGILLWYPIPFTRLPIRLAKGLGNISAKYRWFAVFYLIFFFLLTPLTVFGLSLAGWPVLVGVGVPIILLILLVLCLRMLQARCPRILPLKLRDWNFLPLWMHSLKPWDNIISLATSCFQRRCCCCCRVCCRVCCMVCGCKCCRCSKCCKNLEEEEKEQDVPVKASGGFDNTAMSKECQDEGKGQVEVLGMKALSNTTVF
Description: Inhibition of NaP2b-mediated Pi uptake into transfected HEK293 cells (rat). To be noted: 33P Pi uptake, 100 uM KH2PO4, read-out: pIC50 range for rat Nap2b (converted). The format is cell-based. Here is the method:
(§1) HEK293 cells were obtained from the American Type Culture collection and propagated per their instructions. Expression clones for rat and human NaP2b (SLC34A2) were obtained from Open Biosystems (Catalog numbers MRN1768-9510282, and MHS1010-99823026, respectively). The sequence of the human protein was mutated to insert a threonine after residue 37, and to introduce a N39D mutation.
(§2) The rate of phosphate (Pi) uptake into HEK293 cells was measured using a modification of the method described by Mohrmann et al. (Mohrmann, I., Mohrmann, M., Biber, J., and Murer, H. (1986) Am. J. Phys. 250(3 Pt 1):G323-30.) Transfected HEK293 cells were treated with a pharmacological agent to minimize endogenous PiT-mediated phosphate transport activity, such that the only remaining sodium-dependent phosphate transport activity is that which was bestowed by introduction of the NaP2b genes.
Cells were seeded into 96-well plates at 25,000 cells/well and cultured overnight. Lipofectamine 2000 (Invitrogen) was used to introduce the NaP2b cDNA, and the cells were allowed to approach confluence during a second overnight incubation. […] Cells were then overlayed with either choline uptake buffer or sodium uptake buffer (14 mM Tris, 137 mM sodium chloride, 5.4 mM KCl, 2.8 mM CaCl2, 1.2 mM MgSO4, 100 uM KH2PO4, PiT-silencing agent, 1 mg/mL Bovine Serum Albumin, pH 7.4) containing 6-9 uCi/mL ^33P orthophosphoric acid (Perkin Elmer) and test compound. Each compound was tested at twelve concentrations ranging from 0.1 nM to 30 uM. Assays were run in duplicate.
(§3) After incubation for 3-30 minutes at room temperature, assay mixtures were removed, and the cells were washed twice with ice cold stop solution (137 mM sodium chloride, 14 mM Tris, pH 7.4). Cells were lysed by addition of 20 μL 0.1% Tween 80 followed by 100 μL scintillation fluid, and counted using a TopCount (Perkin Elmer).
(§4) pIC50 (the negative log of the IC50) values of the test compounds were calculated using GraphPad Prism.

For data set [3], the target named is T2, human NaP2b (SLC34A2) (Homo sapiens, UniProt O95436).
T2 construct: host or cells: HEK293
T2 sequence (O95436 1-690): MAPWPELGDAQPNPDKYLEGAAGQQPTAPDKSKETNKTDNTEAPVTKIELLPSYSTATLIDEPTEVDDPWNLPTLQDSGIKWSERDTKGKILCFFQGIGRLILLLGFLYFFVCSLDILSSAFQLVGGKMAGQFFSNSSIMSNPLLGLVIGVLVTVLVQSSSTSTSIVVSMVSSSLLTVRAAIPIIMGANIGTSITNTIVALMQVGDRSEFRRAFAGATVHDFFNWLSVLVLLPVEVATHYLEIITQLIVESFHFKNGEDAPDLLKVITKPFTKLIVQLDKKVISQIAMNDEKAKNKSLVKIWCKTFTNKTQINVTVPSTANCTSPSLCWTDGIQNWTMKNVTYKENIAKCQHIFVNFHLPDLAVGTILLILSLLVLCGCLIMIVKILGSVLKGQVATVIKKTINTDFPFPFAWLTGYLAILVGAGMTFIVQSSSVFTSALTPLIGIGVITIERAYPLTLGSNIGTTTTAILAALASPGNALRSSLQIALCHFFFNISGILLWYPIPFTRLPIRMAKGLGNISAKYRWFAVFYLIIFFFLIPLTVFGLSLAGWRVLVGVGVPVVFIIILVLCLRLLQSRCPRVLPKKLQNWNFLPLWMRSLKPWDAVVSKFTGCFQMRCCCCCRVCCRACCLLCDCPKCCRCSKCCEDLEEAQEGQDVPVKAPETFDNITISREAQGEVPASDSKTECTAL
In words: Inhibition of NaP2b-mediated Pi uptake into transfected HEK293 cells (human). Type of data set: cell-based. The note with it: 33P Pi uptake, 100 uM KH2PO4, human protein with Thr inserted after residue 37 and N39D, read-out: pIC50 range for human (converted). Here is the method:
as §1, §2
Cells were seeded into 96-well plates at 25,000 cells/well and cultured overnight. […]
as §3, §4

A short description of data set [4]: Fecal recovery of orally administered compounds. The format is in vivo, Sprague-Dawley rats. The note with it: rat, oral gavage, feces collected until 48 hr after dosing; same animals as Example 6. Here is the method: The animals were kept in metabolic cages and feces were collected from the time of dosing until 48 hr after dosing. Upon collection, feces was dried by lyophilization and ground to a visually homogenous powder. Duplicate samples of ground feces from each individual animal were weighed out and extracted using organic solvent. Extracted samples were then diluted into mobile phase and test compound levels were quantitatively determined by LC-MS/MS analysis as described in Example 6 except that the standard curve was prepared in a feces matrix.

The test system of data set [5] is NaPi2b. In words: Competition with phosphate: Pi uptake assay repeated at 2.1 vs 0.1 mM phosphate. Type of data set: cell-based. To be noted: potency at 2.1 vs 0.1 mM phosphate. Here is the method: To ascertain if an inhibitor was competitive for binding with phosphate, the procedure was repeated, but raising the concentration of the substrate in the assay mixture from 0.1 to 2.1 mM phosphate.

Data set [6] deals with uptake of phosphorus from the intestine. Description: In vivo evaluation, co-dosing in chow: inhibition of uptake of phosphorus from the intestine. Also noted: species or system Sprague-Dawley rats. The note with it: rat, compound in chow, mean drug dose 115 mg/kg/day, versus control group. From the text: Male, 7-week-old Sprague-Dawley rats (Charles-River laboratories international, Hollister, Calif.) were allowed to acclimate for a minimum of 3 days. The experiment was initiated by switching animals to a synthetic diet (0.6% phosphorus and 0.6% calcium, Harlan Teklad TD.84122) for four days. After this time, the animals were placed into metabolic cages for daily monitoring of food and water consumption, as well as urine and fecal collections. Test compounds were incorporated into the powdered diet listed above containing 3% chocolate flavoring (w/w, BioServ #7345) at 1.3 mg test compound per gram of diet to achieve an average daily nominal dose of 100 mg/kg/day. The actual dose received by each animal was later determined by measuring prepared diet consumption and body weight. Urine samples were collected in three daily periods from 24-48, 48-72, and 72-96 hours of drug dosing. […] Phosphorus levels in the urine were determined by anion exchange chromatography using a Dionex ICS-3000 ion chromatography system. […] Elution of urine phosphate ions was monitored via conductivity detector and reported as ppm relative to a standard ion solution containing phosphate. Daily urinary P output relative to the P consumed in the prepared diet for each animal was calculated. […] The differences between the means of control and treated groups were evaluated by t tests.

`O=C(O)CCSCc1cccc(C(=O)Nc2ccc(N3CCCCC3)cc2C(=O)c2cc3ccc(C(F)(F)F)cc3[nH]2)c1` [Example 1, 3-(3-((4-(Piperidin-1-yl)-2-(6-(trifluoromethyl)-1H-indole-2-carbonyl)phenyl)carbamoyl)benzylthio)propanoic acid] came in with a Cmax in data set [1] (actual oral dose 7.5 mg/kg, LLOQ 10 ng/mL) of 299 ng/mL. Also, the AUC in data set [1] (actual oral dose 7.5 mg/kg) is 433 ng·h/mL. Also, the IC50 in data set [2] and in data set [3] was 1 to 7.94 µM each time. Besides, the “% recovered in feces” value in data set [4] worked out at 34%.
Regarding `COCCNC(=O)c1cccc(SCc2cccc(C(=O)Nc3ccc(N4CCCCC4)cc3C(=O)c3cc4ccc(C(F)(F)F)cc4[nH]3)c2)c1` [Example 3, N-(2-Methoxyethyl)-3-(3-(4-(piperidin-1-yl)-2-(6-(trifluoromethyl)-1H-indole-2-carbonyl)phenylcarbamoyl)benzylthio)benzamide], the IC50 in data set [2] was 2 to 25.1 µM.
Take `CN(CCN1CCOCC1)C(=O)c1cccc(C(=O)Nc2ccc(N3CCCCC3)cc2C(=O)c2cc3ccc(C(F)(F)F)cc3[nH]2)c1` [Example 2, N1-Methyl-N1-(2-morpholinoethyl)-N3-(4-(piperidin-1-yl)-2-(6-(trifluoromethyl)-1H-indole-2-carbonyl)phenyl)isophthalamide 2,2,2-trifluoroacetate]: the Cmax in data set [1] (actual oral dose 11 mg/kg, LLOQ 0.5 ng/mL) was 91 ng/mL. Besides, in data set [1] (actual oral dose 11 mg/kg), the AUC was below 97 ng·h/mL. The IC50 in data set [2] and in data set [3] was below 1 µM in each case. In data set [5], the “Competitive with respect to Pi?” value is “No”. For the same molecule, the “% recovered in feces” value in data set [4] is listed as 2.9%. For the same molecule, in data set [6], the “Mean % inhibition Urine Pout/P consumed” value was determined as 20%.
